These results are taken from PMC2683906 (Chemical research in toxicology, 2009).

SMILES strings stand for the structures.

For series [1] the following is noted: buffer, pH 9.
For series [2] the following is noted: buffer, pH 7.4.
The conditions of series [3]: buffer, pH 9. This is another data set of the same source.
Series [4] deals with globin. Conditions: rats and mice exposed to 1,3-[2,3-14C]-butadiene; cited from earlier work.
For series [5] the following is noted: cited from earlier work.
The conditions of series [6]: rodents given BDD or BMO; cited from earlier work.
The conditions of series [7]: 6.25 to 1000 ppm, mice and rats; cited from earlier work.
For series [8] the following is noted: cited from earlier work. This is another data set of the same source.

With `C=CC(=O)CO` [HMVK, hydroxymethylvinyl ketone], the “Estimated half-life of HMVK, HMVK + L-valinamide” value in series [1] was 13.5 min. In addition, the “Half-life of HMVK in the absence of nucleophilic amino acids” value in series [2] is “a Half-life of HMVK when incubated at a concentration of 3 mM at pH 7.4, 37 °C in the absence of nucleophilic amino acids was determined to be 710 min. ND, not determined. Half-lives were estimated assuming pseudo-first order kinetics. Data is representative of typical experimental values”. Also, the “Estimated half-life of HMVK, HMVK + NAL” value in series [3] was 45 min. Besides, the “Time at which all of HMVK was consumed” value (HMVK 3 mM, NAC 6 mM, pH 7.4, 37 °C) turned out to be 0.5 h. Also, for the setting “buffer, pH 7.4”, the “Estimated half-life of HMVK, HMVK + NAC” value is “instantaneous”.
In the case of `C=[14CH][14CH]=C` [1,3-[2,3-^14C]-butadiene], the “Total globin radioactivity characterized as trihydroxybutyl adducts” value in series [4] is on record as 1−2%.
With `C=CC(O)CO` (centres unmarked) [BDD, 3-butene-1,2-diol], the “HMVK-derived mercapturates as share of the administered BDD dose” value in [5] is 4−8%. For the same compound, in series [6], the “Amount of BDD detected in the urine” value is reported as less than 5%.
Consider `C=CC=C` [BD, 1,3-Butadiene], for which the “Tumor formation after long-term inhalation exposure” value in series [7] is “tumor formation at multiple organ sites”. Moreover, in series [8], the “International Agency for Research on Cancer classification” value is on record as “are carcinogenic to humans” and the “National Toxicology Program classification” value was “known to be a human carcinogen”.
